This note sets out measurements from patent US7511119B2, “PRAME peptide analogues” (MannKind Corporation, priority 2005, dated 2009).

The subject of test [1] is target cells coated with natural peptide. Description: In vivo cytotoxicity against splenocytes coated with natural SSX-2 41-49 peptide (CFSE). On the set-up: species or system HHD mice. The note with it: spleen and blood; targets coated with 20 μg/ml and 1 μg/ml natural peptide. How it is done:
Eight groups of mice (n=4) were immunized with plasmid expressing SSX-241-49 natural epitope, by direct inoculation into the inguinal lymph nodes with 25 μg in 25 μl of PBS/each lymph node at day 0, 3, 14 and 17. This was followed by two additional peptide boosts (similar amount) at day 28 and 31, using a negative control peptide (Melan A 26-35 “EAA”), natural peptide or analogs as shown in FIG. 9.
To evaluate the in vivo response against natural peptide, splenocytes were isolated from littermate control HHD mice and incubated with 20 μg/mL or 1 μg/ml of natural peptide for 2 hours. These cells were then stained with CFSE^hi fluorescence (4.0 μM or […] for 15 minutes) and intravenously co-injected into immunized mice with an equal number of control splenocytes stained with CFSE^lo fluorescence (0.4 μM). Eighteen hours later the specific elimination of target cells was measured by removing spleen and PBMC from challenged animals and measuring CFSE fluorescence by flow cytometry. The relative depletion of the populations corresponding to peptide loaded splenocytes was calculated relative to the control (unloaded) population and expressed as % specific lysis. FIG. 10 (spleen) and 11 (blood) show the in vivo cytotoxicity elicited by the regimens described in FIG. 7.

For another test, the system named is T2 cells. In words: Ex vivo cytotoxicity against 51Cr-labeled T2 target cells after plasmid prime and peptide boost. In kind it is in vivo, mice. The note with it: plasmid prime, peptide boost; splenocytes restimulated ex vivo; FIG. 8. How it is done: Three groups of mice (n=4) were immunized with a plasmid expressing SSX-241-49 natural epitope by direct inoculation into the inguinal lymph nodes with 25 μg in 25 μl of PBS/each lymph node at day 0, 3, 14 and 17. This was followed by two additional peptide boosts (similar amount) at day 28 and 31. One week after the boost, splenocytes were stimulated ex vivo with SSX-241-49 natural peptide and tested against ^51Cr-labeled target cells (T2 cells) at various E:T ratios (FIG. 8). […] This correlated with the binding and stability parameters determined by ex vivo experimentation.

Test [2] relates to T cell lines against natural epitope SSX-241-49. Description: Cross-reactivity and functional avidity: IFN-gamma production by T cell lines raised against natural SSX-2 41-49.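 Further: analogs presented ex vivo by competent APCs to T cells specific for the non-mutated epitope, scored by lowest activating concentration, peak cytokine effect and concentration at that peak.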 The test is classed as cell-based, HHD transgenic mice. The conditions noted are these: T cells raised to native peptide tested on analogs; footnote * and unit not given.
Test [3] has as its system 624.38 melanoma cells. In words: Ex vivo cytotoxicity against human tumor cells after boost with SSX-2 analogs. In kind it is in vivo. The note with it: plasmid prime, peptide boost; FIG. 12. How it is done:
Eight groups of mice (n=4) were immunized with plasmid expressing SSX-241-49 natural epitope by direct inoculation into the inguinal lymph nodes with 25 ug in 25 ul of PBS/each lymph node at day 0, 3, 14 and 17. This was followed by two additional peptide boosts (similar amount) at day 28 and 31, using a negative control peptide (Melan A 26-35 “EAA”), natural peptide or analogs as shown in FIG. 9.

Another test concerns PSMA288-297 peptide. Description: Plasmid prime, peptide boost, IFN-gamma ELISPOT (PSMA288-297). In kind it is in vivo, HHD transgenic mice. The conditions noted are these: versus natural peptide boost, FIG. 23. How it is done: Two groups of HHD transgenic mice (n=8) were immunized with plasmid expressing PSMA288-297 by direct inoculation into the inguinal lymph nodes with 25 μg in […] of PBS to each lymph node at day 0, 3, 14 and 17. This was followed by two peptide boosts (25 μg) at day 28 and 31 with either the natural peptide or the I297V analog.
Mice were sacrificed at 10 days after the last boost, and splenocytes prepared and assessed for IFN-γ production by ELISPOT analysis. […] At 48 hours after incubation, the assay was developed and the frequency of cytokine-producing T cells that recognized the PSMA288-297 peptide was automatically counted. The data is represented in FIG. 23 as frequency of specific T cells normalized to 0.5 million responder cells (mean of triplicates+SD).

The subject of test [4] is native PSMA288-297 peptide. In words: Cross-reactive immunogenicity of PSMA analogs, IFN-gamma ELISPOT. In kind it is in vivo, HHD transgenic mice. The conditions noted are these: peptide plus pI:C intranodal; FIG. 22. How it is done:
Groups of HHD transgenic mice (n=8) were immunized with peptide (natural epitope PSMA288-297, or analogs bearing substitutions at primary or secondary anchor residues) by direct inoculation into the inguinal lymph nodes, with 25 μg in 25 μl of PBS+12.5 μg of pI:C to each lymph node at day 0, 3, 14 and 17.
Mice were sacrificed at 10 days after the last boost, and splenocytes prepared and assessed for IFN-γ production by ELISPOT analysis. […] At 48 hours after incubation, the assay was developed and the frequency of cytokine-producing T cells that recognized native PSMA288-297 peptide was automatically counted. The data is represented in FIG. 22 as the number of spot forming colonies/well (mean of triplicates±SD). […] To the extent that the poor immunogenicity of the native epitope reflects tolerance, the improved activity of these analogs represents tolerance breaking.

The subject of a further test is LnCap cells. In words: Ex vivo cytotoxicity against PSMA+ A2+ human tumor cells. The conditions noted are these: splenocytes restimulated ex vivo with native PSMA288-297. In kind it is in vivo. How it is done: HHD transgenic mice (n=4) were immunized with PSMA288-297 peptide (25 μg in 25 μl of PBS, plus 12.5 μg of pI:C to each lymph node) at day 0, 3, 14 and 17. One week after the boost, splenocytes were stimulated ex vivo with the native PSMA288-297 peptide and tested against ^51Cr-labeled human tumor cells (PSMA^+ A2^+ LnCap cells, or as negative control, LnCap cells coated with MHC class I-blocking antibody) at various E:T ratios.
HHD transgenic mice (n=4) were immunized with plasmid expressing the PSMA288-297 epitope by direct inoculation into the inguinal lymph nodes with 25 μg in 25 μl of PBS to each lymph node at day 0, 3, 14 and 17. This was followed by two peptide boosts (same amount) at day 28 and 31, with the analog I297V. One week after the boost, splenocytes were stimulated ex vivo with the native PSMA288-297 peptide and tested overnight against ^51Cr-labeled human tumor cells (Lncap, A2^+ PSMA^+; or 624.38 A2^+ PSMA^− or control 624.28 cells A2^− PSMA^−) at various E:T ratios.

Test [5] relates to native peptide loaded splenocytes. In words: In vivo cytotoxicity against native PRAME peptide-loaded splenocytes (CFSE). The note with it: pCTLR2 prime, peptide boost; FIGS. 30-31. On the set-up: species or system HHD transgenic mice.
Test [6] has as its target T1, A0201 restricted MHC Class 1 molecules (Homo sapiens, UniProt P04439, D140Y/D185E/D98H/E176V/E277Q/G131W/G231S/I119V/I121R/I166T/I218V/N151K/N90K/P208A/P217A/Q86G/Q94H/R138H/R169H). In words: iTopia binding assay (% binding). The note with it: compared with the native peptide.
Excerpt: (§2) Avidin-coated microtiter plates containing class I monomer loaded with a so-called placeholder peptide were used to evaluate peptide binding, affinity and off-rate. […] Assay buffers, anti-MHC-FITC mAb and beta2-microglobulin and control peptides were also supplied with the kits.
This assay measures the ability of individual peptides to bind HLA molecules under standardized optimal binding conditions. Monomer-coated plates were first stripped, releasing the placeholder peptide and leaving only the MHC heavy chain bound to the plate. Test peptides were then introduced under optimal folding conditions, along with the anti-MHC-FITC mAb. […] The anti-MHC-FITC mAb binds preferentially to a refolded MHC complex. Therefore, the fluorescence intensity resulting from each peptide was related to the peptide's ability to form complex with MHC molecule. Each peptide's binding was evaluated relative to the positive control peptide provided in the kit, and the results were expressed “% binding”.
A further test has as its system A2-624.28 control cells. In words: Ex vivo cytotoxicity against A2-negative control cells. The test is classed as in vivo. The note with it: same effector cells as for 624.38. How it is done:
(§1) This was followed by two peptide boosts (2.5 μg) at day 28 and 31, with the analog L426Nva L433Nle.

The test system of a further test is PRAME425-433 peptide. In words: IFN-gamma ELISA of splenocytes after pCTLR2 prime and peptide boost. In kind it is in vivo, HHD transgenic mice. The note with it: pCTLR2 prime, 2.5 μg peptide boost; versus native peptide boost; FIG. 29. A general note: In an ELISA, binding on a coated surface is turned into a signal by an enzyme label.
For test [7], the system named is 624.38 melanoma cells. Description: Ex vivo cytotoxicity against PRAME+ A2+ human tumor cells. In kind it is in vivo. The note with it: splenocytes restimulated ex vivo with native PRAME peptide. How it is done: as §1
Test [8] relates to T cell line specific for the native epitope PRAME425-433. Description: Cross-reactivity of PRAME425-433 analogs: IFN-gamma secretion from T cell line specific for native epitope. The conditions noted are these: analog peptide at approximately 0.3 μM; normalized to native PRAME425-433. In kind it is cell-based. How it is done:
The analogs listed in FIGS. 26-28 were tested for various properties such as improved affinity and stability of binding, cross-reactivity with the native epitope, and immunogenicity as follows in Examples 40-48. […] The observed affinities of the analogs are reported as % binding (compared to the positive control) and ED50, and stability of binding as half time of dissociation. Cross reactivity with the native epitope was assessed by using the analog peptides to stimulate IFN-gamma secretion from a T cell line specific for the native epitope, essentially as described in Example 6. The data shown in FIGS. 26-28 were generated by stimulating with analog peptide at approximately 0.3 μM. […] In some cases, the reported values are the average of two determinations.

Test [9] has as its system PRAME425-433-specific T cells. In words: Tetramer/CD8 co-staining of PRAME425-433-specific T cells. The test is classed as in vivo, HHD transgenic mice. The note with it: versus boost with negative control peptide; FIG. 31.
Another test addresses HLA-A*0201 (Homo sapiens, UniProt P04439, D140Y/D185E/D98H/E176V/E277Q/G131W/G231S/I119V/I121R/I166T/I218V/L300P/L318F/N151K/N90K/P208A/P217A/Q86G/Q94H/R138H/R169H/T345S). In words: iTopia affinity assay (ED50). The test is classed as binding. The note with it: compared with the respective native peptide. The text has this: Avidin-coated microtiter plates containing class I monomer loaded with a so-called placeholder peptide were used to evaluate peptide binding, affinity and off-rate. The monomer-coated plates were supplied as part of the iTopia Epitope Discovery System Kit (Beckman Coulter, Inc., San Diego, Calif., USA). Assay buffers, anti-MHC-FITC mAb and beta2-microglobulin and control peptides were also supplied with the kits.
Plates were read on the fluorometer. Sigmoidal dose response curves were generated using Prism software.

Test [10] deals with T1, A0201 restricted MHC Class 1 molecules. In words: iTopia off-rate assay (T1/2). The note with it: compared with the respective native peptide. In kind it is binding.
Description: as §2
The plates were then incubated on the allele-specific monomer plates at 37° C. The plates were measured at multiple time points (0, 0.5, 1, 1.5, 2, 4, 6 and 8 hrs) for relative fluorescence intensity. The time required for 50% of the peptide to dissociate from the MHC monomer is defined as the T1/2 value (hrs).
The binding and offrate (T1/2) was determined for six native epitopes and their analogs which were designed to enhance the immune response.
Another test concerns splenocytes. Description: Ex vivo cytokine production (IFN-gamma ELISA) after boost with PRAME analogs. The test is classed as in vivo, HHD transgenic mice. The conditions noted are these: 10 μg/ml native peptide, 48 hours; FIG. 32.

Entries after “also recorded” stand apart in the source; their conditions may differ. Square brackets hold non-standard residues; d marks the D form. Ends that are not written are not given here. Nle = CCCC[C@H](N)C(=O)O; Nva = CCC[C@H](N)C(=O)O

With `CC[C@H](C)[C@H](NC(=O)[C@H](CCCCN)NC(=O)[C@H](CCC(=O)O)NC(=O)[C@H](CO)NC(=O)[C@@H](NC(=O)[C@@H](N)CCCCN)C(C)C)C(=O)N[C@@H](Cc1ccccc1)C(=O)N[C@@H](Cc1ccc(O)cc1)C(=O)N[C@H](C(=O)O)C(C)C` [SSX2 41-49 (A42V)], the “in vivo cytotoxicity (% specific lysis), in words” value in [1] is “increased activity”. In addition, the “response against target cells expressing the natural peptide” value in the test with T2 cells was “higher response”. For the same compound, in test [2], the “Cross-reactivity and fct avidity (native to analogs)*” value amounted to 0.03. Also, the “cytotoxicity against human tumor cells expressing natural SSX-2 41-49 epitope” value with 624.38 melanoma cells [3] is “increased cytotoxicity”.

“PSMA 288-297(I297V): PSMA288-297 analog with I297V substitution”: the “frequency of native epitope-specific T cells (ELISPOT)” value in the test on PSMA288-297 peptide is reported as “considerably higher”. Besides, the “priming of immune response against native PSMA288-297 (IFN-γ ELISPOT), in words” value in test [4] is listed as “increased priming”. Further, the “cytotoxicity against LnCap human tumor cells” value in the test on LnCap cells was “effective in mediating cytotoxicity against LNCAP”.

For “S425F: PRAME425-433 analog with Phe for the Ser at P1 (FLLQHLIGL) [Peptide S425F]”, the “in vivo cytotoxicity against native epitope, in words” value in test [5] was “capable of expanding the immunity against the native epitope”. Further, in test [6], the “percent binding, in words” value is listed as “exceeded that range on the high side”.

Regarding “S{Nva}LQHLIG{Nle} (S[Nva]LQHLIG[Nle]) [Prame 425-433 (L426Nva, L433Nle)]”, the “cytotoxicity against A2-negative control cells” value in the test with A2-624.28 control cells is reported as “no significant activity”. The “IFN-γ production in response to PRAME425-433 peptide (ELISA)” value in the test on PRAME425-433 peptide was “significant enhancement of IFN-γ production”. Further, the “cytotoxicity against 624.38 human tumor cells” value in the test on 624.38 melanoma cells [7] is “significant cytotoxicity”. Also, the “IFN-γ production (cross-reactivity), in words” value in test [8] was “significant level of cross-recativity”. Moreover, the “in vivo cytotoxicity against native epitope, in words” value in [5] is “preserved induction of cytotoxicity; also recorded: capable of expanding the immunity against the native epitope”. For the same compound, the “expansion of T cells specific against the native epitope (tetramer staining)” value in test [9] is “significantly higher”. In addition, the “binding affinity (ED50) / binding characteristics, in words” value in the test with HLA-A*0201 was “similar, somewhat improved binding characteristics”. Also, the “stability of binding (half-time of dissociation), in words” value in test [10] is recorded as “Significant increase in the stability”. For the same compound, the “ex vivo cytokine production (IFN-γ) by splenocytes” value in the test with splenocytes is “greater response”.
